Consider one substance from patent publication US20230114264A1, “ACTIVATION OF LYTIC GENES IN CANCER CELLS” (priority 2020, published 2023).

Data set [1] has as its system BZLF1. Nature of the data set: EBV reactivation by BZLF1 gRNA transfection (Casilio) in C666-1 cells stably expressing HA-dCas9-EGFP and 3×FLAG-PUFa-p65HSF1. In kind it is cell-based, Epstein-Barr virus (EBV). The protocol:
SNU-719 and C666-1 cells stably expressing HA-dCas9-EGFP and 3×FLAG-PUFa-p65HSF1 were cultivated in RPMI-1640 (Sigma) with 10% fetal bovine serum (FBS) (Gibco) and 1% GlutaMAX (Gibco) and cultured in 37° C. incubator with 5% CO2. EBV reactivation experiments were conducted with cells seeded into 6-well plates at 2×10^6 cells per well the day before transfection. 2 micrograms (μg) of control gRNA or individual BZLF1 gRNA (A3) (SEQ ID NO: 8), gRNA (A4) (SEQ ID NO: 9), gRNA (A5) (SEQ ID NO: 10), or gRNA (A6) (SEQ ID NO: 11) gRNAs were transfected into cells with Lipofectamine 2000 (Invitrogen). After transfection, cells were grown for 48 hours and harvested for protein extraction or FACS (FIGS. 4, 5, 7A-7E).
FACS Analysis. Cells were harvested with trypsin and fixed for 15 minutes (mins) with 4% paraformaldehyde. The cells were then centrifuged at 2000×g for 5 mins and resuspended in 3% BSA for 30 mins. The resuspend cells were centrifuged again at 2000×g for 5 mins. Samples were stained with Alexa-647 conjugated anti-BZLF1 monoclonal antibody for 2 hours. Samples were analyzed on a FACSCalibur flow cytometer using CellQuest Pro software (BD Bioscience). Thousands of events were collected in each run.
Quantitative RT-PCR Analysis. Cells were harvested with trypsin, centrifuged at top speed for 1 min, and RNA was extracted using TRIzol reagent (Invitrogen). 2 μg of total RNA was used to produce a cDNA library using Superscript III Reverse Transcriptase. SYBR Green gene expression assays (Roche) were performed using the GAPDH primers as endogenous control and primers targeting the EBV lytic genes BZLF1, BGLF4, BLRF2 were used to assess EBV reactivation. Power SYBR Green master mix was used for performing real-time quantitative PCR (RT-qPCR). Each reaction was performed with 2 μL of 1:3 diluted cDNA. The RT-qPCR samples were analyzed with a Roche LC480 PCR instrument. Gene expression levels were calculated by “delta Ct” algorithm and normalized to control samples.

In data set [2] the test system is BZLF1. Nature of the data set: p65HSF1 and BZLF1 sgRNA transfection into SNU-719 cells stably expressing HA-dCas9-EGFP. The class given is cell-based, Epstein-Barr virus (EBV). As to conditions: compared among BZLF1 sgRNAs. The protocol:
(§1) SNU-719 and C666-1 cells stably expressing HA-dCas9-EGFP were cultivated in RPMI-1640 (Sigma) with 10% fetal bovine serum (FBS) (Gibco) and 1% GlutaMAX (Gibco) and cultured in a 37° C. incubator with 5% CO2. EBV reactivation experiments were conducted with cells seeded into 6-well plates at 2×10^6 cells per well the day before transfection. 1 microgram (μg) of p65HSF1 and 1 microgram (μg) of control sgRNA or individual BZLF1 sgRNA1 (SEQ ID NO: 8), sgRNA2 (SEQ ID NO: 9), sgRNA 3 (SEQ ID NO: 10), or sgRNA4 (SEQ ID NO: 11) were transfected into cells with Lipofectamine 2000 (Invitrogen). After transfection, cells were grown for 48 hours and harvested for FACS, protein extraction, or RNA extraction (FIGS. 14A-14C). […] The expression of EBV immediate early protein BRLF1 (Rta) and early protein BGLF4 (PK) were also detectable (FIG. 14B).

For data set [3], the system named is BZLF1. Nature of the data set: p65HSF1 and BZLF1 sgRNA transfection into C666-1 cells stably expressing HA-dCas9-EGFP. The class given is cell-based, Epstein-Barr virus (EBV). As to conditions: compared among BZLF1 sgRNAs. The protocol:
as §1

In data set [4] the test system is EBV-negative AKATA cells. Nature of the data set: Functional virion proliferation assay. The class given is cell-based. The protocol: Functional virion proliferation assay. SNU-719 HA-dCas9-Tet-on-PUFa-p65HSF1-BZLF1 gRNA (3) or C666-1 HA-dCas9-Tet-on-PUFa-p65HSF1-BZLF1 gRNA (A5) cells were seeded into 15 cm culture dish at 70% density the day before being treated with 1 μg/mL DOX. The supernatant was filtered utilizing a […] (Millipore), and virus was collected by ultra-centrifuged at 20,000 rpm for 4 hours at 4° C. and resuspended in 1:30 fresh medium. EBV negative AKATA cells were treated with the medium containing virus for 96 hours, and RNA samples were extracted for quantitative RT-PCR Analysis (FIG. 8J).

The test system of data set [5] is EBV lytic genes. Nature of the data set: EBV lytic gene induction in DOX-induced C17 dCas9-Tet-on-PUFa-p65HSF1 sgRNA cells. The class given is cell-based, Epstein-Barr virus (EBV). The protocol:
SNU-719, C666-1 and C17 (nasopharyngeal carcinoma) cancer cells stably expressing HA-dCas9-EGFP and BZLF1 sgRNA3 were modified to inducibly express 3×FLAG-PUFa-p65HSF1 using a Tetracycline response element (Tet-On).
dCas9-Tet on-p65HSF1-BZLF1sgRNA3 cell lines were produced as described previously. EBV reactivation, FACS, electrophoretic gel images, RT-PCR experiments, RNAscope in situ hybridization, growth proliferation assay and functional virion proliferation assay were conducted as described previously
Producing HA-dCas9-EGFP-Tet-on PUFa-p65HSF1-BZLF1 sgRNA3-BRLF1sgRNA3 cell line. The day prior to transfection, HEK-293FT cells were seeded into a 10 cm culture dish at 70% density. […]. At 6 hours post-transfection, medium was exchanged for fresh. At 48 hour post-transfection, 5 mL of medium containing the lentivirus was collected and centrifuged for 10 minutes at 2,000 rpm to remove cellular debris. The supernatant was filtered through a 0.45-micron filter (Millipore), and the lentivirus was collected. […]

As for “BZLF1 gRNA (A5): BZLF1 gRNA spacer sequence SEQ ID NO: 10, GAAACTATGCATGAGCCAC (chemistry not given here)”, in data set [1] (C666-1, 2 μg gRNA, 48 hours after transfection, protein extraction or FACS), the “EBV reactivation, induction of BZLF1 (Zta) protein expression” value is “reactivate EBV expression at detectable levels”. Besides, in data set [1] (C666-1, FIG. 7D), the “BZLF1 (ZTa) protein expression by immunostaining” value is “activated BZLF1 (ZTa) protein expression”. Also, in data set [1] (RT-qPCR, FIG. 7F, cell line not stated), the “expression of the downstream EBV genes BGLF4 and BLRF2” value is “induces the expression of the downstream EBV genes BGLF4 and BLRF2”. Also, the “expression level of BZLF1 in protein and RNA samples” value in data set [2] and in data set [3] was “highest expression level of BZLF1” throughout. Besides, the “infection of EBV-negative AKATA cells, EBV gene expression detectable (e.g. LMP1, EBER1, EBNA1, BZLF1, BRLF1)” value in data set [4] (supernatant from DOX treated C17 cells) and in data set [4] (supernatant from DOX treated SNU-719 cells) was “able to infect the EBV-negative AKATA cells” throughout. The “infection of EBV-negative AKATA cells and EBV gene expression (e.g. EBER1)” value in data set [4] (supernatant from SNU-719 cells expressing HA-dCas9-EGFP, gRNA and 3×FLAG-PUFa-p65HSF1) is “able to infect and trigger the EBV gene expression”. Besides, in data set [5] (1 μg/mL DOX), the “expression of other EBV lytic genes including BRLF1 (Rta), BGLF4 (PK), BFRF3 (VCAp18), BMRF1, BdRF1 and BLLF1” value is listed as “induces the expression of other EBV lytic genes”. Besides, the “BZLF1 (Zta) reactivation” value in data set [5] (1 μg/mL Doxycycline (DOX), Example 10) was “reactivated BZLF1 (Zta)”.
